Where a chain is given by its changes, count along the chain named.
Legend:
[1] = molecular target: T1, rat olfactory CNG (OLF) channel (Rattus norvegicus, UniProt Q00195); test: inside-out patch recording, cGMP dose-response; format: cell-based
T1 sequence (Q00195 1-664): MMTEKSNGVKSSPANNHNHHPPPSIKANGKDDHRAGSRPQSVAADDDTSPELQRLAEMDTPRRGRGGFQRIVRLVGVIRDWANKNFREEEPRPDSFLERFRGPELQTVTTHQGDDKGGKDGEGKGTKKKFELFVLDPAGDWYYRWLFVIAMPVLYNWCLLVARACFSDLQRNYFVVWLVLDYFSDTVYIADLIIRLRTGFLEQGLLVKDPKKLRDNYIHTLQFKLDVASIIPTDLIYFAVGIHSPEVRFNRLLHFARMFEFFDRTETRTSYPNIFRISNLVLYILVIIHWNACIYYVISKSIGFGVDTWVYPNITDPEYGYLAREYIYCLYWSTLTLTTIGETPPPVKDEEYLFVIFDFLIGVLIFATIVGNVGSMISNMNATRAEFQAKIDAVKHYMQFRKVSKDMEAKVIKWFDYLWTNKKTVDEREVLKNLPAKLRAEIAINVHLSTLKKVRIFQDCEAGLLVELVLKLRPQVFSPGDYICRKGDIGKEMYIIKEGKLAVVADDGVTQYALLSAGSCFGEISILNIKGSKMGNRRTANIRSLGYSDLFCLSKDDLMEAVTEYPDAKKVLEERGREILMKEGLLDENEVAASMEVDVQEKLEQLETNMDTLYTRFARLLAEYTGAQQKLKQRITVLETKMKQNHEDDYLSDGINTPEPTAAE

[2] = molecular target: T2, rat olfactory CNG (OLF) channel (Rattus norvegicus, UniProt Q00195, W332Y); test: inside-out patch recording, cGMP dose-response; format: cell-based
T2 sequence (Q00195 1-664 W332Y): T1 sequence (Q00195 1-664) with W332Y

Nc1nc2c(ncn2[C@@H]2O[C@@H]3COP(=O)(O)O[C@H]3[C@H]2O)c(=O)[nH]1 [cGMP]
EC50 [1]: 2.47 µM
EC50 [2]: 17.7 µM

From paper PMC2229492 (The Journal of General Physiology, 2000)
